Laboratory results published in patent publication US9102977B2, “Method for analysis of cellular DNA content” (ChemoMetec A/S, priority 2010, dated 2015).

Tests used:
U2OS cells [1] = test: Measurement of drug effects on cell cycle using acid lysis method (DNA content by DAPI image cytometry); assay type: cell-based, human; settings: drug treatment for 20 hours, Nucleocounter NC-3000 (FIG. 5)
Procedure: U2OS cells were grown in RPMI+10% FCS to approximately 75% confluency in 6-well plates (Nunclon surface, Nunc) and then treated with the following drugs for 20 hours:
After drug treatment each of the wells was washed once with 1 mL of PBS and then incubated with 0.25 ml of lysis buffer (100 mM citrate buffer (pH 2.25), 0.5% Triton X-100, 5 μg/ml DAPI) for 5 minutes at 37° C. Prior to quantitative image cytometry (Nucleocounter NC-3000), the samples were neutralized by adding 0.25 ml stabilization buffer (500 mM citrate, pH 8.3).

U2OS cells [2] = settings: known/described effect; cited from earlier work

| SMILES | cell cycle distribution (DNA content histogram) (U2OS cells [1]) | known effect of the drug on the cell cycle (arrest phase) (U2OS cells [2]) |
| --- | --- | --- |
| CC[C@@]1(O)C(=O)OCc2c1cc1n(c2=O)Cc2cc3ccccc3nc2-1 [Camptothecin] | accumulation of S-G2 cells | 4. Camptothecin, CRT (S-G2 arrest): |
| COc1cc([C@@H]2c3cc4c(cc3[C@@H](O[C@@H]3O[C@@H]5CO[C@@H](C)O[C@H]5[C@H](O)[C@H]3O)[C@H]3COC(=O)[C@H]23)OCO4)cc(OC)c1O [Etoposide] |  | 5. Etoposide (S-G2 arrest): |
| NC(=O)NO [Hydroxyurea] |  | 3. Hydroxyurea, HU (S arrest): |
| N[C@@H](Cn1ccc(=O)c(O)c1)C(=O)O [L-mimosine] | predominantly G1 peak | 2. L-mimosine (G1 arrest): |
| COC(=O)Nc1nc2ccc(C(=O)c3cccs3)cc2[nH]1 [Nocodazole] |  | 1. Nocodazole (G2-M arrest): |
